Data as given in patent US11944622B2 (Annapurna Bio, Inc., priority 2018, dated 2024).

Target: T1, APJ Receptor (Homo sapiens, UniProt P35414)
T1 sequence (P35414 1-380): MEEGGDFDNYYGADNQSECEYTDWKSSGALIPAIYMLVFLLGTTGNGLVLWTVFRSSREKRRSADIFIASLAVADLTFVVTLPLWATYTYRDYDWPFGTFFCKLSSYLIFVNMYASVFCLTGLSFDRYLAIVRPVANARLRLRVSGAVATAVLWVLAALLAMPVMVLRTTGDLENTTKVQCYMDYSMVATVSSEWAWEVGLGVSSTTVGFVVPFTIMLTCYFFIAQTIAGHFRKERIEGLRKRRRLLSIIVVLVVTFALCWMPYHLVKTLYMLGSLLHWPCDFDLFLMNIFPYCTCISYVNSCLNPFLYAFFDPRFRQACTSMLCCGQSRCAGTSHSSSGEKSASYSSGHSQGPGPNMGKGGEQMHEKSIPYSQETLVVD
Test: APJ cAMP assay (DiscoverX enzyme fragment complementation; inhibition of forskolin-stimulated cAMP)
Assay type: cell-based
Conditions: CHO-K1 cell line stably expressing the APJ Receptor; EC80 forskolin; 30 minutes at 37° C.; read-out: Potency Range (APJ cAMP EC50)
From the text: Activation of APJ receptor is known to inhibit forskolin-stimulated cyclic AMP (cAMP) production in cells in a pertussis toxin-sensitive manner which indicates primary coupling to the GαI subunit of the G protein heterotrimeric complex. In addition to signaling through G protein and inhibition of cAMP, APJ receptor activation also results in β-arrestin recruitment, receptor internalization and activation of extracellular-regulated kinases (ERKs).
In order to optimize functional activity directed toward Gi coupling we utilized a CHO-K 1 cell line developed by DiscoverX stably expressing the APJ Receptor. Cells expressing APJR receptor were plated in a 384-well microtiter plates and incubated overnight at 37° C. with 5% CO2 to allow the cells to attach and grow. Media was then aspirated from the cells and replaced with 15 uL 2:1 Hanks Balanced Salt Solution (HBSS)/10 mM Hepes:cAMP XS+Ab reagent. Five microliters (5 uL) of previously generated compound sample stocks at 4× final concentration in assay buffer containing 4× EC80 forskolin were then added to the cells and allowed to incubate at 37° C. for 30 minutes.
After incubation the assay signal was generated using a technology termed enzyme fragment complementation (EFC). In EFC the enzyme B-galactosidase is split into two complementary portions (EA and ED). The fragment ED is fused to cAMP and in the assay format competes with endogenous cAMP for binding to a cAMP specific antibody. Activated B-Gal is formed when exogenous EA fragment binds to free ED-cAMP (not bound to cAMP specific antibody). Activated enzyme levels are detected through conversion of B-gal chemiluminescent substrate which generates a detectable luminescence signal and read on standard microtiter plate.
The methodology for detection of cAMP using EFC requires incubation with 20 uL of cAMP XS+ED/CL lysis cocktail for one hour followed by incubation with 20 uL cAMP XS+EA reagent for three hours at room temperature. Microplates were read following signal generation with a PerkinElmer Envision instrument utilizing chemiluminescent signal detection.
Compound activity was analyzed using CBIS data analysis suite (ChemInnovation, CA). Percentage activity was calculated using the following formula: % Activity=100%×(1−(mean RLU of test sample−mean RLU of Max control)/(mean RLU of vehicle control−mean RLU of Max control))

Row | Compound | EC50
1 | CCOc1cccc(-c2nc3nc(NS(=O)(=O)CC4(O)CC4)cnc3n2-c2c(OC)cccc2OC)n1 [Example 62, N-(1-(2,6-dimethoxyphenyl)-2-(6-ethoxypyridin-2-yl)-1H-imidazo[4,5-b]pyrazin-5-yl)-1-(1-hydroxycyclopropyl)methanesulfonamide] | 1 to 100 nM
2 | CCOc1cccc(-c2nc3nc(N4CC(O)C4)c(NS(C)(=O)=O)nc3n2-c2c(OC)cccc2OC)n1 [Example 136, N-(1-(2,6-Dimethoxyphenyl)-2-(6-ethoxypyridin-2-yl)-5-(3-hydroxyazetidin-1-yl)-1H-imidazo[4,5-b]pyrazin-6-yl)methanesulfonamide] | 100 to 10000 nM
3 | CCOc1cccc(-c2nc3ncc(NS(=O)(=O)Cc4ncc(F)cn4)nc3n2-c2c(OC)cccc2OC)n1 [Example 79, N-(1-(2,6-dimethoxyphenyl)-2-(6-ethoxypyridin-2-yl)-1H-imidazo[4,5-b]pyrazin-6-yl)-1-(5-fluoropyrimidin-2-yl)methanesulfonamide] | < 1 nM
4 | CCOc1cccc(-c2nc3ncc(NS(=O)(=O)C4CCC4)nc3n2-c2c(OC)cccc2OC)n1 [Example 31, N-(1-(2,6-dimethoxyphenyl)-2-(6-ethoxypyridin-2-yl)-1H-imidazo[4,5-b]pyrazin-6-yl)cyclobutanesulfonamide] | 1 to 100 nM
5 | CCOc1cccc(-c2nc3ncc(NS(=O)(=O)[C@H]4C[C@H](O)C4)nc3n2-c2c(OC)cccc2OC)n1 [Example 34, trans-N-(1-(2,6-dimethoxyphenyl)-2-(6-ethoxypyridin-2-yl)-1H-imidazo[4,5-b]pyrazin-6-yl)-3-hydroxycyclobutane-1-sulfonamide] | 1 to 100 nM
6 | CCOc1cccc(-c2nc3nc(Cl)c(NS(=O)(=O)Cc4ccc(F)cc4)nc3n2-c2c(OC)cccc2OC)n1 [Example 108, N-(5-Chloro-1-(2,6-dimethoxyphenyl)-2-(6-ethoxypyridin-2-yl)-1H-imidazo[4,5-b]pyrazin-6-yl)-1-(4-fluorophenyl)methanesulfonamide] | < 1 nM
7 | CCOc1cccc(-c2nc3nc(Cl)c(NS(=O)(=O)C4CC4)nc3n2-c2c(OC)cncc2OC)n1 [Example 118, N-(5-Chloro-1-(3,5-dimethoxypyridin-4-yl)-2-(6-ethoxypyridin-2-yl)-1H-imidazo[4,5-b]pyrazin-6)cyclopropanesulfonamide] | 1 to 100 nM
8 | CCOc1cccc(-c2nc3ncc(N(C)S(C)(=O)=O)nc3n2-c2c(OC)cccc2OC)n1 [Example 32, N-(1-(2,6-dimethoxyphenyl)-2-(6-ethoxypyridin-2-yl)-1H-imidazo[4,5-b]pyrazin-6-yl)-N-methylmethanesulfonamide] | 100 to 10000 nM
9 | CCOc1cccc(-c2nc3ncc(NS(C)(=O)=O)nc3n2-c2c(OC)ccnc2OC)n1 [Example 68, N-(1-(2,4-dimethoxypyridin-3-yl)-2-(6-ethoxypyridin-2-yl)-1H-imidazo[4,5-b]pyrazin-6-yl)methanesulfonamide] | 1 to 100 nM
10 | CCOc1cccc(-c2nc3nc(Cl)c(NS(=O)(=O)N4CCC(O)CC4)nc3n2-c2c(OC)cccc2OC)n1 [Example 116, N-(5-Chloro-1-(2,6-dimethoxyphenyl)-2-(6-ethoxypyridin-2-yl)-1H-imidazo[4,5-b]pyrazin-6-yl)-4-hydroxypiperidine-1-sulfonamide] | 1 to 100 nM
11 | CCOc1cccc(-c2nc3nnc(NS(=O)(=O)Cc4ccc(F)cc4)cc3n2-c2c(OC)cccc2OC)n1 [Example 122, N-(7-(2,6-Dimethoxyphenyl)-8-(6-ethoxypyridin-2-yl)-7H-imidazo[4,5-c]pyridazinyl)-1-(4-fluorophenyl)methanesulfonamide] | < 1 nM

Further lines, results first:

Row | EC50 | Compound
12 | 1 to 100 nM | CCOc1cccc(-c2nc3nc(NS(=O)(=O)C4CC4)cnc3n2-c2c(OC)cccc2OC)n1 [Example 92, N-(1-(2,6-Dimethoxyphenyl)-2-(6-ethoxypyridin-2-yl)-1H-imidazo[4,5-b]pyrazin-5-yl)cyclopropanesulfonamide]
13 | 1 to 100 nM | CCOc1cccc(-c2nc3nc(CC)c(NS(C)(=O)=O)nc3n2-c2c(OC)cccc2OC)n1 [Example 86, N-(1-(2,6-dimethoxyphenyl)-2-(6-ethoxypyridin-2-yl)-5-ethyl-1H-imidazo[4,5-b]pyrazin-6-yl)methanesulfonamide]
14 | 1 to 100 nM | CCOc1cccc(-c2nc3ncc(NS(C)(=O)=O)nc3n2-c2c(OC)ccnc2OC)n1 (atropisomer, axis not shown) [Example 84, N-(1-(2,4-Dimethoxypyridin-3-yl)-2-(6-ethoxypyridin-2-yl)-1H-imidazo[4,5-b]pyrazin-6-yl)methanesulfonamide]
15 | < 1 nM | CCOc1cccc(-c2nc3nc(Cl)c(NS(=O)(=O)C[C@H]4C[C@](C)(O)C4)nc3n2-c2c(OC)cccc2OC)n1 [Example 115, N-(5-Chloro-1-(2,6-dimethoxyphenyl)-2-(6-ethoxypyridin-2-yl)-1H-imidazo[4,5-b]pyrazin-6-yl)-1-((1r,3r)-3-hydroxymethylcyclobutyl) methanesulfonamide]
16 | 1 to 100 nM | CCOc1cccc(-c2nc3ncc(NS(=O)(=O)CC4CC4)nc3n2-c2c(OC)cccc2OC)n1 [Example 4, 1-cyclopropyl-N-(1-(2,6-dimethoxyphenyl)-2-(6-ethoxypyridin-2-yl)-1H-imidazo[4,5-b]pyrazin-6-yl)methanesulfonamide]
17 | 1 to 100 nM | CCOc1cccc(-c2nc3nc(N)cnc3n2-c2c(OC)cccc2OC)n1 [Example 16, 1-(2,6-dimethoxyphenyl)-2-(6-ethoxypyridin-2-yl)-1H-imidazo[4,5-b]pyrazin-5-amine]
18 | 1 to 100 nM | CCOc1cccc(-c2nc3ncc(NS(=O)(=O)c4ncccn4)nc3n2-c2c(OC)cccc2OC)n1 [Example 41, N-(1-(2,6-dimethoxyphenyl)-2-(6-ethoxypyridin-2-yl)-1H-imidazo[4,5-b]pyrazin-6-yl)pyrimidine-2-sulfonamide]
19 | < 1 nM | CCOc1cccc(-c2nc3ncc(NS(=O)(=O)N4CCOCC4)nc3n2-c2c(OC)cccc2OC)n1 [Example 37, N-(1-(2,6-dimethoxyphenyl)-2-(6-ethoxypyridin-2-yl)-1H-imidazo[4,5-b]pyrazin-6-yl)morpholine-4-sulfonamide]
20 | 1 to 100 nM | CCOc1cccc(-c2nc3nnc(NS(=O)(=O)Cc4ncc(O)cn4)cc3n2-c2c(OC)cccc2OC)n1 [Example 129, N-(7-(2,6-Dimethoxyphenyl)-8-(6-ethoxypyridin-2-yl)-7H-imidazo[4,5-c]pyridazinyl)-1-(5-hydroxypyrimidin-2-yl)methanesulfonamide]
21 | 100 to 10000 nM | CCOCc1nc2ncc(NS(=O)(=O)c3ccccc3)nc2n1-c1c(OC)cccc1OC [Example 57, N-(1-(2,6-dimethoxyphenyl)-2-(ethoxymethyl)-1H-imidazo[4,5-b]pyrazin-6-yl)benzenesulfonamide]
22 | 100 to 10000 nM | CCOc1cccc(-c2nc3nccnc3n2-c2c(OC)cccc2OC)n1 [Example 18, 1-(2,6-dimethoxyphenyl)-2-(6-ethoxypyridin-2-yl)-1H-imidazo[4,5-b]pyrazine]
23 | 1 to 100 nM | CCOc1cccc(-c2nc3nc(Cl)c(NS(=O)(=O)C4CCOCC4)nc3n2-c2c(OC)cccc2OC)n1 [Example 111, N-(5-Chloro-1-(2,6-dimethoxyphenyl)-2-(6-ethoxypyridin-2-yl)-1H-imidazo[4,5-b]pyrazin-6-yl)tetrahydro-2H-pyran-4-sulfonamide]
24 | 100 to 10000 nM | COc1cccc(OC)c1-n1c(-c2ccc(C)o2)nc2nnc(NS(C)(=O)=O)cc21 [Example 130, N-(7-(2,6-Dimethoxyphenyl)-8-(5-methylfuran-2-yl)-7H-imidazo[4,5-c]pyridazinyl)methanesulfonamide]
25 | 100 to 10000 nM | CCOc1cccc(-c2nc3ncc(Br)nc3n2-c2c(OC)cccc2OC)n1 [Example 1, 6-bromo-1-(2,6-dimethoxyphenyl)-2-(6-ethoxypyridin-2-yl)-1H-imidazo[4,5-b]pyrazine]
26 | 1 to 100 nM | CCOc1cccc(-c2nc3nc(Cl)c(NS(=O)(=O)Cc4ccc(C)cn4)nc3n2-c2c(OC)cccc2OC)n1 [Example 114, N-(5-Chloro-1-(2,6-dimethoxyphenyl)-2-(6-ethoxypyridin-2-yl)-1H-imidazo[4,5-b]pyrazin-6-yl)-1-(5-methylpyridin-2-yl)methanesulfonamide]
